Reference: patent US8436011B2, “Pyridinopyridinone derivatives, preparation thereof and therapeutic use thereof” (Sanofi, priority 2008, dated 2013)

Target: T1, fusion protein Tel/PDGF-Rβ (BaF3 Tel/PDGF cells) (Homo sapiens, UniProt P09619)
T1 construct: the transmembrane and intracellular part of the PDGF-Rβ receptor; N-terminal part of the Tel transcription factor (ETV6); expressed in transfected cells; host or cells: murine haematopoietic cell line BaF/3; the other entry of the earlier key: ETV6 (P41212, Transcription factor ETV6)
T1 sequence (P09619 with tags, fused parts or gaps): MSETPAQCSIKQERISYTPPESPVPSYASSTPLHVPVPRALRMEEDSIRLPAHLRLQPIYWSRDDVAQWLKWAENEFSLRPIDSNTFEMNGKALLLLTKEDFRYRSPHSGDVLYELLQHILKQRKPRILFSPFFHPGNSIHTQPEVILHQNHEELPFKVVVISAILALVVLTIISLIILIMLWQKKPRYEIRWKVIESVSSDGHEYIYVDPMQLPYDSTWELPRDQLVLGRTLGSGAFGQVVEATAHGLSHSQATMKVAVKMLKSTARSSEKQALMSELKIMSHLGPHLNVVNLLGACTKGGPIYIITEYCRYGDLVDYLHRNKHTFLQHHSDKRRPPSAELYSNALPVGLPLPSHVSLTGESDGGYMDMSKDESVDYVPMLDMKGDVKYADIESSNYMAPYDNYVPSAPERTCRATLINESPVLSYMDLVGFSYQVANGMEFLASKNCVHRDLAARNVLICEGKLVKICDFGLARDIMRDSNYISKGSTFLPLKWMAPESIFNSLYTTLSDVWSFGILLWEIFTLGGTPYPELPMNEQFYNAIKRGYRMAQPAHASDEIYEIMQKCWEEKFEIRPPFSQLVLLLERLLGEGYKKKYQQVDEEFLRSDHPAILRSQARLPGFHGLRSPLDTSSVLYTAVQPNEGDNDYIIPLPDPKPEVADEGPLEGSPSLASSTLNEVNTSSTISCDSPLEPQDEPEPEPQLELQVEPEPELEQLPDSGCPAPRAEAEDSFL
Assay: Inhibition of PDGF-Rβ tyrosine kinase activity: proliferation of BaF3 Tel/PDGF cells (CellTiter-Glo, 72 h)
Type: cell-based, murine
Settings: 72 hours incubation, read-out: IC50 (concentration that inhibits 50% of the proliferation of the BaF3 Tel/PDGF cells)
Procedure: Measurement of Inhibition of the Tyrosine Kinase Activity of the PDGF Beta (PDGF-Rβ) (Baf-3 tel/PDGFIRβ) Receptor:
This test consists in evaluating the effects of the compounds on the tyrosine kinase activity of the PDGF beta receptor.
The inhibitory effect of the compounds according to the invention towards the tyrosine kinase activity of the PDGF-R receptor was evaluated on the murine haematopoietic cell line BaF/3 transfected with a plasmid coding for the fusion protein Tel/PDGF-Rβ. This fusion protein is found in chronic myelomonocytic myeloid leukaemias (CMML). It comprises the N-terminal part of the Tel transcription factor and the transmembrane and intracellular part of the PDGF-Rβ receptor. This fusion protein is present in dimerized form (presence of an oligomerization domain in the N-terminal part of Tel) and, as a result, leads to constitutive activity of the kinase domain of PDGF-Rβ. This line BaF3 Tel/PDGF has been described in the literature several times and especially, in detailed manner, in the article by M. Carroll et al., PNAS, 1996, 93, 14845-14850.
The BaF3 Tel/PDGF cells are washed with phosphate buffer and inoculated in 96-well plates, at a density of 5×10^4 cells/ml ([…]), in RPMI 1640 containing 10% FCS, in the presence or absence of the test compounds. After incubation for 72 hours, the viable cells are quantified by measuring the cellular ATP by means of the CellTiter-Glo® kit (Promega, Cat G7571). The cells are treated according to the instructions given by the kit manufacturer, and the luminescence is measured using a Luminoskan (Ascent, Labsystem) with the following parameters: measurement: single; integration time: 1000 ms, lag time: 5 s.
It is thus seen that the compounds according to the invention have inhibitory activity on the tyrosine kinase activity of PDGF-Rβ. This activity is given by the concentration that inhibits 50% of the proliferation of the BaF3 Tel/PDGF cells (IC50).

IC50 [nM]	SMILES
2	CCN1CC(F)(F)C[C@H]1CNC(=O)Cc1ccc(-c2ccc3c(=O)c(C(=O)NC)c(N)n(CC)c3n2)cc1 [compound 24, 2-amino-1-ethyl-7-{4-[2-({[(2S)-1-ethyl-4,4-difluoropyrrolidin-2-yl]methyl}-amino)-2-oxoethyl]phenyl}-N-methyl-4-oxo-1,4-dihydro-1,8-naphthyridine-3-carboxamide]
4.7	CCn1c(N)c(C(=O)NC)c(=O)c2ccc(-c3ccc(CC(=O)NCC4COCCN4C4CC4)cc3)nc21 (centres unmarked) [compound 33, 2-amino-7-[4-(2-{[(4-cyclopropylmorpholin-3-yl)methyl]amino}-2-oxoethyl)phenyl]-1-ethyl-N-methyl-4-oxo-1,4-dihydro-1,8-naphthyridine-3-carboxamide]
